These results are taken from ChEMBL document CHEMBL5385901, “Drug repurposing of propafenone to discover novel anti-tumor agents by impairing homologous recombination to delay DNA damage recovery of rare disease conjunctival melanoma” (Eur J Med Chem, 2023).

The nature of series [1]: Antiproliferative activity against human CM-AS16 cells assessed as cell growth inhibition incubated for 72 hrs by CCK8 assay. It counts as functional, cell-based. The settings on record: CM-AS16, 72 h. A general note: Tetrazolium dyes change colour on reduction, which living cells bring about.
Series [2] relates to CRMM-2. As to the kind of experiment: Antiproliferative activity against human CRMM-2 cells assessed as cell growth inhibition incubated for 72 hrs by CCK8 assay. It is filed as functional, cell-based. The settings on record: CRMM-2, 72 h.
Series [3] can be described thus: Antiproliferative activity against human CM2005.1 cells assessed as cell growth inhibition incubated for 72 hrs by CCK8 assay. It counts as functional, cell-based. The settings on record: CM2005.1, 72 h.
Series [4] has as its system CRMM-1. In words: Antiproliferative activity against human CRMM-1 cells assessed as cell growth inhibition incubated for 72 hrs by CCK8 assay. It counts as functional, cell-based. As to conditions: CRMM-1, 72 h.
Series [5] can be described thus: Antiproliferative activity against human HL7702 cells assessed as cell growth inhibition incubated for 72 hrs by CCK8 assay. It is filed as toxicity, cell-based. The settings on record: HL7702 (L02) cells.
A short description of series [6]: Antiproliferative activity against human PIG1 cells assessed as cell growth inhibition incubated for 72 hrs by CCK8 assay. It counts as toxicity, cell-based.
Series [7] is described as follows: Inhibition of homologous recombination in human CRMM-1 cells at 10 uM incubated for 12 hrs by real-time PCR analysis relative to control. It counts as functional. (Quantitative PCR measures a nucleic acid by following its amplification.)
The subject of series [8] is CRMM-1. As to the kind of experiment: Induction of apoptosis in human CRMM-1 cells at 3 uM measured after 48 hrs by DAPI/Annexin-V-PE staining based flow cytometry relative to control. It counts as functional.
Series [9] deals with CRMM-1. As to the kind of experiment: Inhibition of cell migration in human CRMM-1 cells assessed as migration rate at 0.3 uM measured after 72 hrs by wound healing assay (reference value: 70 %). It is filed as functional. Further details: scale not given: the % may be the effect or the level left.
The target of series [10] is T1, Double-strand break repair protein MRE11 (Homo sapiens, UniProt P49959).
T1 sequence (P49959 whole entry): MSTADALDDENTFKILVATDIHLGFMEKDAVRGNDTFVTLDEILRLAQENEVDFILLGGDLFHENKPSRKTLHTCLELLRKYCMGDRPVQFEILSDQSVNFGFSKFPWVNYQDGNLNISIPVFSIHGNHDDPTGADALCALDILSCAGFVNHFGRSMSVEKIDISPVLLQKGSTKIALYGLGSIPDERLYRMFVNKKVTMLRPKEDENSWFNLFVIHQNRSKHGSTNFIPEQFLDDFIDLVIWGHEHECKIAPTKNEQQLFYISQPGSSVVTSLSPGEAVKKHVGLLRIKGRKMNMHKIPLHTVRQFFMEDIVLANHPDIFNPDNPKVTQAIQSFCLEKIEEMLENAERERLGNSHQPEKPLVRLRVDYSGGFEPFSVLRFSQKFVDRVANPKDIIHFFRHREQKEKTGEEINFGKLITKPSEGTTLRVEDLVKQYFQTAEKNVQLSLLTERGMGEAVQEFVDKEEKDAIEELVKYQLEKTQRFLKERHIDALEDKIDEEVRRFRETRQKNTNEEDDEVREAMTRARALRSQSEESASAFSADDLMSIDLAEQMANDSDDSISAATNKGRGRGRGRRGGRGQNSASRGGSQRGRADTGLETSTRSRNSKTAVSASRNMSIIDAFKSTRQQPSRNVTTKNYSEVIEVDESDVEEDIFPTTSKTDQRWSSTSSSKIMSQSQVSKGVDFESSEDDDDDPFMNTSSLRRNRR
In words: Binding affinity to his-tagged recombinant human MRE11 assessed as dissociation constant by MST assay.

A short description of series [11]: Cytotoxicity against human PIG1 cells at 20 uM incubated for 72 hrs by CCK8 assay relative to control. It is filed as toxicity, cell-based. The settings on record: read-out: INH.
For series [12], the system named is CM-AS16. In words: Effect on DNA repair genes in human CM-AS16 cells harboring BRAF mutation at 20 uM by GO enrichment analysis. It counts as functional, cell-based.
Series [13] deals with CM-AS16. In words: Effect on DNA integrity checkpoint genes in human CM-AS16 cells harboring BRAF mutation at 20 uM by GO enrichment analysis. It counts as functional, cell-based.
The test system of series [14] is CM-AS16. In words: Effect on Fanconi anemia pathway in human CM-AS16 cells harboring BRAF mutation at 20 uM by KEGG analysis. It is filed as functional, cell-based.
Series [15] can be described thus: Cytotoxicity against human CM-AS16 cells assessed as cell growth inhibition incubated for 72 hrs by CCK8 assay. It is filed as functional, cell-based. The settings on record: CM-AS16, 72 h.
Series [16] relates to CRMM-2. In words: Cytotoxicity against human CRMM-2 cells assessed as cell growth inhibition incubated for 72 hrs by CCK8 assay. It is filed as functional, cell-based. As to conditions: CRMM-2, 72 h.
Series [17] concerns CRMM-1. As to the kind of experiment: Cytotoxicity against human CRMM-1 cells assessed as cell growth inhibition incubated for 72 hrs by CCK8 assay. It is filed as functional, cell-based. As to conditions: CRMM-1, 72 h.
Series [18] is described as follows: Cytotoxicity against human CM2005.1 cells assessed as cell growth inhibition incubated for 72 hrs by CCK8 assay. It is filed as functional, cell-based. As to conditions: CM2005.1, 72 h.
Series [19] concerns CRMM-1. In words: Induction of apoptosis in human CRMM-1 cells at 0.3 to 3 uM measured after 48 hrs by DAPI/Annexin-V-PE staining based flow cytometry. The settings on record: dose 0.3-3 µM. It is filed as functional, cell-based.
Series [20] has as its system CRMM-1. In words: Induction of apoptosis in human CRMM-1 cells at 40 uM measured after 48 hrs by DAPI/Annexin-V-PE staining based flow cytometry relative to control. It is filed as functional.
The test system of series [21] is CRMM-1. As to the kind of experiment: Inhibition of cell migration in human CRMM-1 cells assessed as migration rate at 3 uM measured after 72 hrs by wound healing assay (reference value: 70 %). Further details: scale not given: the % may be the effect or the level left. It is filed as functional.
In series [22] the test system is CRMM-1. As to the kind of experiment: Induction of apoptosis in human CRMM-1 cells at 0.1 uM measured after 48 hrs by DAPI/Annexin-V-PE staining based flow cytometry. It is filed as functional, cell-based.
Series [23] concerns CRMM-1. In words: Induction of DNA double strand breaks in human CRMM-1 cells assessed as gamma-H2AX accumulation at 1 uM measured after 24 hrs immunofluorescence based confocal microscopy. It is filed as functional, cell-based.
In series [24] the test system is CRMM-2. In words: Induction of DNA double strand breaks in human CRMM-2 cells assessed as gamma-H2AX accumulation at 1 uM measured after 24 hrs immunofluorescence based confocal microscopy. It counts as functional, cell-based.
In series [25] the test system is CRMM-1. As to the kind of experiment: Induction of DNA double strand breaks in human CRMM-1 cells assessed as gamma-H2AX accumulation upto 10 uM by immunoblot analysis. It is filed as functional, cell-based.
Series [26] concerns CRMM-2. In words: Induction of DNA double strand breaks in human CRMM-2 cells assessed as gamma-H2AX accumulation upto 10 uM by immunoblot analysis. It counts as functional, cell-based. (In western blotting, separated proteins are transferred to a membrane and probed.)
The test system of series [27] is CRMM-1. In words: Induction of DNA damage in human CRMM-1 cells assessed as increase in p53 level upto 10 uM by immunoblot analysis. It is filed as functional, cell-based.
In series [28] the test system is CRMM-2. As to the kind of experiment: Induction of DNA damage in human CRMM-2 cells assessed as increase in p53 level upto 10 uM by immunoblot analysis. It counts as functional, cell-based.
Series [29] deals with CRMM-1. As to the kind of experiment: Induction of DNA damage in human CRMM-1 cells assessed as decrease in MRE11 level measured after 48 hrs by immunoblot analysis. It is filed as functional, cell-based. The settings on record: dose <= 10.0 µM.
Series [30] concerns CRMM-1. As to the kind of experiment: Induction of DNA damage in human CRMM-1 cells assessed as decrease in RAD50 level measured after 48 hrs by immunoblot analysis. It counts as functional, cell-based. As to conditions: dose <= 10.0 µM.
The subject of series [31] is CRMM-1. As to the kind of experiment: Induction of DNA damage in human CRMM-1 cells assessed as decrease in NBS1 level measured after 48 hrs by immunoblot analysis. It is filed as functional, cell-based. As to conditions: dose <= 10.0 µM.
Series [32] has as its system CRMM-2. In words: Induction of DNA damage in human CRMM-2 cells assessed as decrease in MRE11 level measured after 48 hrs by immunoblot analysis. It counts as functional, cell-based. As to conditions: dose <= 10.0 µM.
In series [33] the test system is CRMM-2. In words: Induction of DNA damage in human CRMM-2 cells assessed as decrease in RAD50 level measured after 48 hrs by immunoblot analysis. It is filed as functional, cell-based. As to conditions: dose <= 10.0 µM.
The test system of series [34] is CRMM-2. As to the kind of experiment: Induction of DNA damage in human CRMM-2 cells assessed as decrease in NBS1 level measured after 48 hrs by immunoblot analysis. It counts as functional, cell-based. The settings on record: dose <= 10.0 µM.
For series [35], the system named is CRMM-1. In words: Induction of DNA damage in human CRMM-1 cells assessed as decrease in […] level upto 10 uM measured after 48 hrs by immunoblot analysis. It is filed as functional, cell-based.
Series [36] deals with CRMM-1. As to the kind of experiment: Induction of DNA damage in human CRMM-1 cells assessed as decrease in RAD51 level upto 10 uM measured after 48 hrs by immunoblot analysis. It counts as functional, cell-based.
The test system of series [37] is CRMM-2. In words: Induction of DNA damage in human CRMM-2 cells assessed as decrease in […] level upto 10 uM measured after 48 hrs by immunoblot analysis. It counts as functional, cell-based.
The test system of series [38] is CRMM-2. In words: Induction of DNA damage in human CRMM-2 cells assessed as decrease in RAD51 level upto 10 uM measured after 48 hrs by immunoblot analysis. It is filed as functional, cell-based.
The target in series [39] is T2, Double-strand break repair protein MRE11 (Homo sapiens) (UniProt P49959).
T2 sequence (whole entry): T1 sequence (P49959 whole entry)
In words: Inhibition of his-tagged human MRE11 endonuclease activity using phage X174 circular ssDNA as substrate at 10 to 300 uM incubated for 30 mins by chemiluminescence based analysis. The settings on record: dose 10-300 µM.

SMILES strings stand for the structures. The source made the active and inactive calls. No cut-off for these calls is given here.

What is called IC50 is the concentration that gives 50% inhibition. By inhibition is commonly meant the relative decrease from the control value, in per cent. In general, Kd refers to the equilibrium constant for the complex coming apart.

On to `O=C(CCCc1ccccc1)c1c(OCCCN2CCNCC2)ccc2ccccc12` [listing 1 of 2 here], for which the IC50 came to 2.9 µM in series [1], 0.7 µM with CRMM-2 [2], 1 µM in series [3] and 1.3 µM in the series with CRMM-1 [4]. Further, the values for the IC50 at 72 h in series [5] and in series [6] were 25.6 µM and 32.9 µM, respectively. Also, the inhibition at 10 µM in [7] stood at 89.5%. In addition, the Activity in the series on CRMM-1 [8] was 80%; in the series on CRMM-1 [9], 45%. In [10], the Kd was 4.3 µM.

Turning to `CCCNCC(O)COc1ccccc1C(=O)CCc1ccccc1` (configuration not stated) [PROPAFENONE], the cytotoxicity at 72 h, 20 µM in [11] worked out at 26%. The outcome with CM-AS16 [12], with CM-AS16 [13], in the series with CM-AS16 [14] and in the series with CRMM-1 [19] was Active. For the same compound, the IC50 was found to be 13.7 µM in [15]; 13.4 µM with CRMM-2 [16]; 24.7 µM in the series on CRMM-1 [17]; 48.3 µM in [18]; 13.7 µM in series [1]; 13.4 µM in the series on CRMM-2 [2]. The IC50 in series [3] came to 48.3 µM; in the series with CRMM-1 [4], 24.7 µM. Besides, the IC50 at 72 h in series [5] was 48.2 µM; in [6], 56 µM. Moreover, the inhibition at 10 µM in [7] is 56.9%. The Activity is 80% in the series on CRMM-1 [20] and 58% with CRMM-1 [21].

Turning to `O=C(CCCc1ccccc1)c1c(OCCCN2CCNCC2)ccc2ccccc12` [listing 2 of 2 here], the outcome in the series with CRMM-1 [22] was inactive. In addition, the result in the series with CRMM-1 [19], in the series on CRMM-1 [23], in the series with CRMM-2 [24], in the series with CRMM-1 [25], in the series with CRMM-2 [26] and in the series on CRMM-1 [27] was Active. The outcome with CRMM-2 [28], in the series with CRMM-1 [35], with CRMM-1 [36], in the series with CRMM-2 [37] and in the series on CRMM-2 [38] was Active. In addition, the Activity result in the series with CRMM-1 [29], with CRMM-1 [30], in the series with CRMM-1 [31], in the series with CRMM-2 [32], in the series on CRMM-2 [33] and in the series on CRMM-2 [34] was “Dose-Dependent Effect” throughout. The inhibition entry in [39] is “Active”.
